#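 Growth conditions: 96-well plates. Treatment: test compound, 48 hours, 5 concentrations. Analysis: linear interpolation between bracketing concentrations; unreached endpoints set to highest concentration. GI50: concentration for 50% inhibition of growth. TGI: total growth inhibition.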
# Assays:
# Test in all cases: DTP human tumour cell line panel, 48 h
# CCRF-CEM leukemia = test system: CCRF-CEM leukemia
# PC-3 prostate = test system: PC-3 prostate
# UO-31 renal = test system: UO-31 renal
# BT-549 breast = test system: BT-549 breast
# NCI/ADR-RES ovarian = test system: NCI/ADR-RES ovarian
# COLO 205 colon = test system: COLO 205 colon
# SF-539 CNS = test system: SF-539 CNS
# HOP-62 NSCLC = test system: HOP-62 NSCLC
# NCI-H460 lung = test system: NCI-H460 lung
# IGROV1 ovarian = test system: IGROV1 ovarian
# SR leukemia = test system: SR leukemia
# A549 NSCLC = test system: A549 NSCLC
# SK-OV-3 ovarian = test system: SK-OV-3 ovarian
# SF-268 CNS = test system: SF-268 CNS
# HCT-15 colon = test system: HCT-15 colon
# UACC-257 melanoma = test system: UACC-257 melanoma
# K-562 leukemia = test system: K-562 leukemia
# SW-620 colon = test system: SW-620 colon
# A498 renal = test system: A498 renal
# SF-295 CNS = test system: SF-295 CNS
# LOX IMVI melanoma = test system: LOX IMVI melanoma
# SK-MEL-28 melanoma = test system: SK-MEL-28 melanoma
# RPMI-8226 leukemia = test system: RPMI-8226 leukemia
# HCC-2998 colon = test system: HCC-2998 colon
# RXF 393 renal = test system: RXF 393 renal
# HT29 colon = test system: HT29 colon
# SNB-19 CNS = test system: SNB-19 CNS
# NCI-H226 lung = test system: NCI-H226 lung
# MDA-MB-231 breast = test system: MDA-MB-231 breast
# KM12 colon = test system: KM12 colon
# OVCAR-4 ovarian = test system: OVCAR-4 ovarian
# SN12C renal = test system: SN12C renal
# OVCAR-8 ovarian = test system: OVCAR-8 ovarian
# OVCAR-5 ovarian = test system: OVCAR-5 ovarian
# NCI-H23 lung = test system: NCI-H23 lung
# U251 CNS = test system: U251 CNS
# SNB-75 CNS = test system: SNB-75 CNS
# T-47D breast = test system: T-47D breast
# MCF7 breast = test system: MCF7 breast
# HCT-116 colon = test system: HCT-116 colon
# MALME-3M melanoma = test system: MALME-3M melanoma
# M14 melanoma = test system: M14 melanoma
# MDA-MB-435 = test system: MDA-MB-435
# TK-10 renal = test system: TK-10 renal
# SK-MEL-2 melanoma = test system: SK-MEL-2 melanoma
# MOLT-4 leukemia = test system: MOLT-4 leukemia
# 786-0 renal = test system: 786-0 renal
# UACC-62 melanoma = test system: UACC-62 melanoma
# ACHN renal = test system: ACHN renal
# OVCAR-3 ovarian = test system: OVCAR-3 ovarian
# DU-145 prostate = test system: DU-145 prostate
# CAKI-1 renal = test system: CAKI-1 renal
# HL-60(TB) leukemia = test system: HL-60(TB) leukemia
# HOP-92 NSCLC = test system: HOP-92 NSCLC
# NCI-H522 lung = test system: NCI-H522 lung
# SK-MEL-5 melanoma = test system: SK-MEL-5 melanoma
compound,measurement,setting,value
CC[N+](CCCCCCCCCC[N+](CC)(c1ccccn1)c1ccccn1)(c1ccccn1)c1ccccn1,GI50,CCRF-CEM leukemia,1.05 µM
same,TGI,CCRF-CEM leukemia,8.78 µM
same,GI50,PC-3 prostate,0.459 µM
same,TGI,PC-3 prostate,11.2 µM
same,GI50,UO-31 renal,2.09 µM
same,TGI,UO-31 renal,12.6 µM
same,GI50,BT-549 breast,0.973 µM
same,TGI,BT-549 breast,88.9 µM
same,GI50,NCI/ADR-RES ovarian,5.28 µM
same,TGI,NCI/ADR-RES ovarian,53.8 µM
same,GI50,COLO 205 colon,1.78 µM
same,TGI,COLO 205 colon,11.6 µM
same,GI50,SF-539 CNS,1.72 µM
same,TGI,SF-539 CNS,14.1 µM
same,GI50,HOP-62 NSCLC,2.15 µM
same,TGI,HOP-62 NSCLC,9.15 µM
same,GI50,NCI-H460 lung,0.625 µM
same,TGI,NCI-H460 lung,10.3 µM
same,GI50,IGROV1 ovarian,2.07 µM
same,TGI,IGROV1 ovarian,11.7 µM
same,GI50,SR leukemia,1.36 µM
same,TGI,SR leukemia,22.1 µM
same,GI50,A549 NSCLC,0.456 µM
same,TGI,A549 NSCLC,> 100 µM
same,GI50,SK-OV-3 ovarian,2.22 µM
same,TGI,SK-OV-3 ovarian,9.28 µM
same,GI50,SF-268 CNS,1.02 µM
same,TGI,SF-268 CNS,19.5 µM
same,GI50,HCT-15 colon,3.2 µM
same,TGI,HCT-15 colon,18.8 µM
same,GI50,UACC-257 melanoma,0.745 µM
same,TGI,UACC-257 melanoma,12.9 µM
same,GI50,K-562 leukemia,0.49 µM
same,TGI,K-562 leukemia,16 µM
same,GI50,SW-620 colon,2.14 µM
same,TGI,SW-620 colon,15.6 µM
same,GI50,A498 renal,1.02 µM
same,TGI,A498 renal,5.58 µM
same,GI50,SF-295 CNS,0.668 µM
same,TGI,SF-295 CNS,2.29 µM
same,GI50,LOX IMVI melanoma,1.5 µM
same,TGI,LOX IMVI melanoma,4.29 µM
same,GI50,SK-MEL-28 melanoma,2.48 µM
same,TGI,SK-MEL-28 melanoma,15.2 µM
same,GI50,RPMI-8226 leukemia,0.267 µM
same,TGI,RPMI-8226 leukemia,3.57 µM
same,GI50,HCC-2998 colon,1.95 µM
same,TGI,HCC-2998 colon,27.2 µM
same,GI50,RXF 393 renal,2.5 µM
same,TGI,RXF 393 renal,21.2 µM
same,GI50,HT29 colon,0.764 µM
same,TGI,HT29 colon,12.1 µM
same,GI50,SNB-19 CNS,0.761 µM
same,TGI,SNB-19 CNS,27.3 µM
same,GI50,NCI-H226 lung,2.04 µM
same,TGI,NCI-H226 lung,22.3 µM
same,GI50,MDA-MB-231 breast,2.24 µM
same,TGI,MDA-MB-231 breast,13.8 µM
same,GI50,KM12 colon,0.739 µM
same,TGI,KM12 colon,8 µM
same,GI50,OVCAR-4 ovarian,1.01 µM
same,TGI,OVCAR-4 ovarian,> 100 µM
same,GI50,SN12C renal,0.431 µM
same,TGI,SN12C renal,11 µM
same,GI50,OVCAR-8 ovarian,2.11 µM
same,TGI,OVCAR-8 ovarian,57.5 µM
same,GI50,OVCAR-5 ovarian,1.86 µM
same,TGI,OVCAR-5 ovarian,9.65 µM
same,GI50,NCI-H23 lung,0.696 µM
same,TGI,NCI-H23 lung,17.9 µM
same,GI50,U251 CNS,0.526 µM
same,TGI,U251 CNS,24 µM
same,GI50,SNB-75 CNS,1.25 µM
same,TGI,SNB-75 CNS,32.2 µM
same,GI50,T-47D breast,0.295 µM
same,TGI,T-47D breast,1.7 µM
same,GI50,MCF7 breast,0.437 µM
same,TGI,MCF7 breast,4.26 µM
same,GI50,HCT-116 colon,0.851 µM
same,TGI,HCT-116 colon,> 100 µM
same,GI50,MALME-3M melanoma,1.52 µM
same,TGI,MALME-3M melanoma,17.7 µM
same,GI50,M14 melanoma,2.57 µM
same,TGI,M14 melanoma,30.5 µM
same,GI50,MDA-MB-435,0.609 µM
same,TGI,MDA-MB-435,4.19 µM
same,GI50,TK-10 renal,3.65 µM
same,TGI,TK-10 renal,24.5 µM
same,GI50,SK-MEL-2 melanoma,1.88 µM
same,TGI,SK-MEL-2 melanoma,5.82 µM
same,GI50,MOLT-4 leukemia,2.28 µM
same,TGI,MOLT-4 leukemia,13.2 µM
same,GI50,786-0 renal,3.76 µM
same,TGI,786-0 renal,66.2 µM
same,GI50,UACC-62 melanoma,0.915 µM
same,TGI,UACC-62 melanoma,7.34 µM
same,GI50,ACHN renal,2.8 µM
same,TGI,ACHN renal,12.9 µM
same,GI50,OVCAR-3 ovarian,1.09 µM
same,TGI,OVCAR-3 ovarian,10.1 µM
same,GI50,DU-145 prostate,0.858 µM
same,TGI,DU-145 prostate,12.4 µM
same,GI50,CAKI-1 renal,2.61 µM
same,TGI,CAKI-1 renal,9.92 µM
same,GI50,HL-60(TB) leukemia,0.554 µM
same,TGI,HL-60(TB) leukemia,2.93 µM
COc1ccc(NC2Oc3cc4c(cc3C(c3cc(OC)c(O)c(OC)c3)C2C)OCO4)cc1 (stereo unspecified),TGI,PC-3 prostate,> 100 µM
same,TGI,UO-31 renal,31.3 µM
same,TGI,BT-549 breast,> 100 µM
same,TGI,NCI/ADR-RES ovarian,98 µM
same,TGI,COLO 205 colon,39 µM
same,TGI,SF-539 CNS,25.6 µM
same,TGI,NCI-H460 lung,23.3 µM
same,TGI,IGROV1 ovarian,> 100 µM
same,TGI,A549 NSCLC,23.5 µM
same,TGI,SF-268 CNS,> 100 µM
same,TGI,HOP-92 NSCLC,> 100 µM
same,TGI,HCT-15 colon,11.3 µM
same,TGI,UACC-257 melanoma,> 100 µM
same,TGI,K-562 leukemia,12.3 µM
same,TGI,SW-620 colon,> 100 µM
same,TGI,A498 renal,31.7 µM
same,TGI,SF-295 CNS,60.5 µM
same,TGI,NCI-H522 lung,27.3 µM
same,TGI,SK-MEL-28 melanoma,37.3 µM
same,TGI,RPMI-8226 leukemia,12.9 µM
same,TGI,HCC-2998 colon,21.7 µM
same,TGI,RXF 393 renal,61.8 µM
same,TGI,HT29 colon,> 100 µM
same,TGI,SNB-19 CNS,> 100 µM
same,TGI,NCI-H226 lung,93.6 µM
same,TGI,MDA-MB-231 breast,11 µM
same,TGI,KM12 colon,> 100 µM
same,TGI,OVCAR-4 ovarian,> 100 µM
same,TGI,SN12C renal,11.7 µM
same,TGI,SK-MEL-5 melanoma,4.34 µM
same,TGI,OVCAR-8 ovarian,67.7 µM
same,TGI,OVCAR-5 ovarian,73.7 µM
same,TGI,NCI-H23 lung,> 100 µM
same,TGI,U251 CNS,35.1 µM
same,TGI,SNB-75 CNS,15 µM
same,TGI,T-47D breast,> 100 µM
same,TGI,MCF7 breast,> 100 µM
same,TGI,HCT-116 colon,29.6 µM
same,TGI,MALME-3M melanoma,35.2 µM
same,TGI,M14 melanoma,> 100 µM
same,TGI,MDA-MB-435,2.51 µM
same,TGI,TK-10 renal,17.7 µM
same,TGI,SK-MEL-2 melanoma,6.72 µM
same,TGI,786-0 renal,37.9 µM
same,TGI,UACC-62 melanoma,35.2 µM
same,TGI,ACHN renal,32.1 µM
same,TGI,OVCAR-3 ovarian,> 100 µM
same,TGI,DU-145 prostate,> 100 µM
same,TGI,CAKI-1 renal,30 µM
same,TGI,HL-60(TB) leukemia,4.51 µM
